# Assay results: US11994511B2, “Biomarkers indicative of prostate cancer and treatment thereof” (UNIVERSITY OF MIAMI, priority 2017, dated 2024)
# Legend:
# Assay type in all cases: cell-based, human
# RWPE-1 cells = assay: Cell proliferation (cell confluence, Incucyte Zoom), non-tumorigenic prostate epithelial cell line RWPE-1; settings: 72 hours; DOX 100 ng/mL [184 nM], N-9 200 ng/mL [613 nM]; vs vehicle (DMSO)
# Experimental: (§4) Cell confluence was monitored using Incucyte Zoom System and the experiments were done with eight replicates each. […] FIG. 4B: The non-tumorigenic prostate epithelial cell line RWPE1, the AR-null PC cell line PC3, and the CRPC cell lines C4-2B and 22Rv1 were treated for 72 hours with vehicle (DMSO), DOX (100 ng/mL [184 nM]), N-9 (200 ng/mL [613 nM]), or the combination of DOX (100 ng/mL [184 nM]) and N-9 (200 ng/mL [613 nM]). C4-2B and 22Rv1 cells were kept in 10% CSS media. Cell confluence was monitored using the Incucyte Zoom System. […] Cell confluence was monitored using the Incucyte Zoom System.
# (§5) FIG. 19: The non-tumorigenic prostate epithelial cell line RWPE1, the AR-null PC cell line PC3, the CRPC cell lines C4-2B and 22Rvl and androgen dependent cell line LNCaP were treated for 72 hours with vehicle (DMSO), DOX (100 ng/mL [184 nM]), N-9 (200 ng/mL [613 nM]), or the combination of DOX (100 ng/mL [184 nM]) and N-9 (200 ng/mL [613 nM]). […] Cell confluence was monitored using the Incucyte Zoom System. […]
# (§6) Cell proliferation: For growth assay, cells were plated in 96-well plates at 5,000 cells/well (for RWPE-1), or 7,500 cells/well (for 22Rvl, C4-2B, PC3), in 6-12 replicates. […] The Incucyte Zoom software was used to analyzed and graph the results.
# 22Rv1 cells = assay: Cell proliferation (cell confluence, Incucyte Zoom) and Compusyn combination index, CRPC cell line 22Rv1; settings: 72 hours; DOX 100 ng/mL [184 nM], N-9 200 ng/mL [613 nM]; 10% CSS; vs vehicle (DMSO)
# Experimental: FIG. 4A: The CRPC cell line 22Rv I was cultured in 2% CSS media and was treated for 72 hours with vehicle (DMSO), doxorubicin (DOX), N9-isopropylolomoucine (N-9), or the combination of DOX and N-9 at different concentrations. Cell confluence was monitored using Incucyte Zoom System and the experiments were done with eight replicates each. The data were analyzed using Compusyn software, and a normalized isobologram was built. […] CI=1 represents additivity, CI<1 synergism, and Cl>1 antagonistic effects. […] Cell confluence was monitored using the Incucyte Zoom System. […] Cell confluence was monitored using the Incucyte Zoom System. […]
# as §6
# To test whether inhibition of this network decreased CRPC cell proliferation, we used doxoruhicin (DOX), which inhibits TOP2A (Tacar et al., 201.3), and N9-isopropylolomoucine (N-9), which targets CCNB 1/CDK1 (Havlicek et al, 1997). […] The normalized isohologram and combination index (CI) were built and determined using Compusyn software.
# PC3 cells = assay: Cell proliferation (cell confluence, Incucyte Zoom), AR-null PC cell line PC3; settings: 72 hours; DOX 100 ng/mL [184 nM], N-9 200 ng/mL [613 nM]; vs vehicle (DMSO)
# Experimental: as §4, §5, §6
# C4-2B cells = assay: Cell proliferation (cell confluence, Incucyte Zoom), CRPC cell line C4-2B; settings: 72 hours; DOX 100 ng/mL [184 nM], N-9 200 ng/mL [613 nM]; 10% CSS; vs vehicle (DMSO)
# Experimental: as §4, §5, §6
# [1] = tested on: seven gene set (KIF20A, KIF23, TOP2A, CCNB1, CCNB2, BUB1, BUB1b) expression in 22Rv1 cells; assay: qPCR expression of the seven gene set after androgen (R1881) stimulation, 22Rv1; settings: 22Rv1, R1881 0.1 nM, 16 hours, vs vehicle
# Experimental: (§1) LNCaP and 22Rv1 cells were seeded and 24 hours later were rinsed twice with PBS and incubated in serum free media for one hour. The cells were then incubated in media containing vehicle or R1881 (0.1 nM) for 16 hours prior to RNA extraction and qPCR analysis. FKBP5 was used as a positive control. Data represent one or two independent experiments, performed in biological triplicates, showing the mean±s.e.m., and normalized to vehicle control. Significant at a p value, ** p value<0.01, *** p value<0.001.
# (§2) RNA isolation and reverse transcriptase quantitative RT-qPCR: Total RNA was collected using Trizol according to the manufacturer's protocol (Life Technologies), and isolated using Direct-zol RNA MiniPrep Plus (Zymo Research, Catalog number R2072). Total RNA was reverse transcribed using a cDNA ReverseTranscription kit (Applied Biosystems, Catalog number 4368814) as per the manufacturer's protocol. TaqMan probes from Applied Biosystems for FKBP5 (Hs01561006 ml), UBE2C (Hs00964100 gl), KIF20A (Hs00993573 ml), KIF23 (Hs00370852 ml), TOP2A (Hs01032137 ml), CCNB1 (Hs01030099 ml), CCNB2 (Hs01084593 gl), BUB1 (Hs01557695 ml), BUBlb (Hs01084828 ml) and GAPDH (Hs02786624 gl) were used.
# (§3) Because of the overlapping transcriptomes of full length AR and AR-V7, we examined whether full length AR also regulated the seven gene set.
# [2] = tested on: seven gene set (KIF20A, KIF23, TOP2A, CCNB1, CCNB2, BUB1, BUB1b) expression in LNCaP cells; assay: qPCR expression of the seven gene set after androgen (R1881) stimulation, LNCaP; settings: R1881 0.1 nM, 16 hours, vs vehicle
# Experimental: as §1, §2, §3
Structure (SMILES),Effect on proliferation of RWPE-1 (RWPE-1 cells),Effect on proliferation of 22Rv1 (22Rv1 cells),Effect on proliferation of PC3 (PC3 cells),Effect on proliferation of C4-2B (C4-2B cells),Regulation of expression of the seven genes (qPCR) [1],Regulation of expression of the seven genes (qPCR) [2]
"COc1cccc2c1C(=O)c1c(O)c3c(c(O)c1C2=O)C[C@@](O)(C(=O)CO)C[C@@H]3O[C@H]1C[C@H](N)[C@H](O)[C@H](C)O1 [DOX, Doxorubicin]",no significant effect,no significant effect,no significant effect,no significant effect,–,–
"CC(C)n1cnc2c(NCc3ccccc3)nc(NCCO)nc21 [N-9, N9-Isopropylolomoucine]",no significant effect,no significant effect,no significant effect,no significant effect,–,–
"C[C@]1(O)CC[C@H]2[C@@H]3CCC4=CC(=O)CCC4=C3C=C[C@@]21C [R1881, methyltrienolone]",–,–,–,–,None of the seven genes are regulated,None of the seven genes are regulated
